{"source": "the OligoGym collection", "note": "HELM strings list units from the 5' end as sugar, base in round brackets, then linkage (d deoxyribose, r ribose, m 2'-O-methyl, p phosphodiester). Strings are as the collection lists them; they lack the last nucleoside at the 3' end of the tested compound. [moe] = 2'-O-(2-methoxyethyl) (MOE); [sp] = phosphorothioate linkage; [m5C] = 5-methylcytosine"}
{"target": "C9ORF72", "test": "mouse, dose not given", "details": "ASO", "units": {"3 h FOB score": "score 0-7"}}
{"substance": "RNA1{[moe]([m5C])[sp].[moe](T)p.[moe](G)p.d([m5C])[sp].d(G)[sp].d(A)[sp].d(T)[sp].d([m5C])[sp].d([m5C])[sp].d([m5C])[sp].d([m5C])[sp].d(A)[sp].d(T)[sp].[moe](T)p.[moe]([m5C])p.[moe]([m5C])p.[moe](A)p.[moe](G)[sp].[moe](T)}$$$$ (last 3' nucleoside missing)", "3 h FOB score": 1.75}
{"substance": "RNA1{[moe]([m5C])[sp].[moe]([m5C])[sp].[moe]([m5C])[sp].[moe](G)[sp].[moe](G)[sp].d([m5C])[sp].d([m5C])[sp].d([m5C])[sp].d([m5C])[sp].d(T)[sp].d(A)[sp].d(G)[sp].d([m5C])[sp].d(G)[sp].d([m5C])[sp].[moe](G)[sp].[moe]([m5C])[sp].[moe](G)[sp].[moe](A)}$$$$ (last 3' nucleoside missing)", "3 h FOB score": 6}
{"substance": "RNA1{[moe]([m5C])[sp].[moe]([m5C])p.[moe](G)p.[moe](G)p.[moe]([m5C])p.[moe]([m5C])p.[moe]([m5C])p.d([m5C])[sp].d(T)[sp].d(A)[sp].d(G)[sp].d([m5C])[sp].d(G)[sp].d([m5C])[sp].d(G)[sp].d([m5C])[sp].d(G)[sp].[moe](A)[sp].[moe]([m5C])}$$$$ (last 3' nucleoside missing)", "3 h FOB score": 2}
{"substance": "RNA1{[moe]([m5C])[sp].[moe]([m5C])p.[moe](G)p.[moe](G)p.[moe]([m5C])p.[moe]([m5C])p.d([m5C])[sp].d([m5C])[sp].d(T)[sp].d(A)[sp].d(G)[sp].d([m5C])[sp].d(G)[sp].d([m5C])[sp].d(G)[sp].[moe]([m5C])p.[moe](G)[sp].[moe](A)}$$$$ (last 3' nucleoside missing)", "3 h FOB score": 5.75}
{"substance": "RNA1{[moe]([m5C])[sp].[moe]([m5C])p.[moe](G)p.[moe](G)p.[moe]([m5C])p.[moe]([m5C])p.d([m5C])[sp].d([m5C])[sp].d(T)[sp].d(A)[sp].d(G)[sp].d([m5C])[sp].d(G)[sp].d([m5C])[sp].d(G)[sp].d([m5C])[sp].[moe](G)p.[moe](A)[sp].[moe]([m5C])}$$$$ (last 3' nucleoside missing)", "3 h FOB score": 3.5}
{"substance": "RNA1{[moe]([m5C])[sp].[moe]([m5C])p.[moe](G)p.[moe](G)p.[moe]([m5C])p.d([m5C])[sp].d([m5C])[sp].d([m5C])[sp].d(T)[sp].d(A)[sp].d(G)[sp].d([m5C])[sp].d(G)[sp].d([m5C])[sp].[moe](G)p.[moe]([m5C])p.[moe](G)[sp].[moe](A)}$$$$ (last 3' nucleoside missing)", "3 h FOB score": 4.5}
{"substance": "RNA1{[moe]([m5C])[sp].[moe]([m5C])p.[moe](G)p.[moe](G)p.d([m5C])[sp].d([m5C])[sp].d([m5C])[sp].d([m5C])[sp].d(T)[sp].d(A)[sp].d(G)[sp].d([m5C])[sp].d(G)[sp].[moe]([m5C])p.[moe](G)p.[moe]([m5C])p.[moe](G)[sp].[moe](A)}$$$$ (last 3' nucleoside missing)", "3 h FOB score": 6}
{"substance": "RNA1{[moe]([m5C])[sp].[moe]([m5C])p.[moe](G)p.[moe](G)p.d([m5C])[sp].d([m5C])[sp].d([m5C])[sp].d([m5C])[sp].d(T)[sp].d(A)[sp].d(G)[sp].d([m5C])[sp].d(G)[sp].d([m5C])[sp].[moe](G)p.[moe]([m5C])p.[moe](G)p.[moe](A)[sp].[moe]([m5C])}$$$$ (last 3' nucleoside missing)", "3 h FOB score": 4.25}
{"substance": "RNA1{[moe]([m5C])[sp].[moe]([m5C])p.[moe](G)p.d(G)[sp].d([m5C])[sp].d([m5C])[sp].d([m5C])[sp].d([m5C])[sp].d(T)[sp].d(A)[sp].d(G)[sp].d([m5C])[sp].d(G)[sp].[moe]([m5C])p.[moe](G)p.[moe]([m5C])p.[moe](G)p.[moe](A)[sp].[moe]([m5C])}$$$$ (last 3' nucleoside missing)", "3 h FOB score": 3.25}
{"substance": "RNA1{[moe]([m5C])[sp].[moe]([m5C])p.[moe](T)p.[moe](A)[sp].d(G)[sp].d([m5C])[sp].d(G)[sp].d([m5C])[sp].d(G)[sp].d([m5C])[sp].d(G)[sp].d(A)[sp].[moe]([m5C])p.[moe](T)p.[moe]([m5C])p.[moe]([m5C])[sp].[moe](T)}$$$$ (last 3' nucleoside missing)", "3 h FOB score": 3}
{"substance": "RNA1{[moe]([m5C])[sp].[moe]([m5C])p.[moe](T)p.[moe](A)p.[moe](G)p.[moe]([m5C])[sp].d(G)[sp].d([m5C])[sp].d(G)[sp].d([m5C])[sp].d(G)[sp].d(A)[sp].d([m5C])[sp].d(T)[sp].[moe]([m5C])p.[moe]([m5C])[sp].[moe](T)}$$$$ (last 3' nucleoside missing)", "3 h FOB score": 6}
{"substance": "RNA1{[moe]([m5C])[sp].[moe]([m5C])p.[moe]([m5C])p.[moe](T)[sp].d(A)[sp].d(G)[sp].d([m5C])[sp].d(G)[sp].d([m5C])[sp].d(G)[sp].d([m5C])[sp].d(G)[sp].[moe](A)p.[moe]([m5C])p.[moe](T)p.[moe]([m5C])[sp].[moe]([m5C])}$$$$ (last 3' nucleoside missing)", "3 h FOB score": 1}
{"substance": "RNA1{[moe]([m5C])[sp].[moe]([m5C])p.[moe]([m5C])p.[moe](T)p.[moe](A)p.[moe](G)[sp].d([m5C])[sp].d(G)[sp].d([m5C])[sp].d(G)[sp].d([m5C])[sp].d(G)[sp].d(A)[sp].d([m5C])[sp].[moe](T)p.[moe]([m5C])[sp].[moe]([m5C])}$$$$ (last 3' nucleoside missing)", "3 h FOB score": 3}
{"substance": "RNA1{[moe]([m5C])[sp].[moe]([m5C])p.[moe]([m5C])p.[moe](T)p.[moe](A)p.[moe](G)p.d([m5C])[sp].d(G)[sp].d([m5C])[sp].d(G)[sp].d([m5C])[sp].d(G)[sp].d(A)[sp].d([m5C])[sp].d(T)[sp].d([m5C])[sp].[moe]([m5C])p.[moe](T)[sp].[moe](G)}$$$$ (last 3' nucleoside missing)", "3 h FOB score": 1.25}
{"substance": "RNA1{[moe]([m5C])[sp].[moe]([m5C])p.[moe]([m5C])p.[moe](T)p.d(A)[sp].d(G)[sp].d([m5C])[sp].d(G)[sp].d([m5C])[sp].d(G)[sp].d([m5C])[sp].d(G)[sp].d(A)[sp].d([m5C])[sp].[moe](T)p.[moe]([m5C])p.[moe]([m5C])p.[moe](T)[sp].[moe](G)}$$$$ (last 3' nucleoside missing)", "3 h FOB score": 1.75}
{"substance": "RNA1{[moe]([m5C])[sp].[moe]([m5C])p.[moe]([m5C])p.[moe]([m5C])[sp].d(T)[sp].d(A)[sp].d(G)[sp].d([m5C])[sp].d(G)[sp].d([m5C])[sp].d(G)[sp].d([m5C])[sp].[moe](G)p.[moe](A)p.[moe]([m5C])p.[moe](T)[sp].[moe]([m5C])}$$$$ (last 3' nucleoside missing)", "3 h FOB score": 1}
{"substance": "RNA1{[moe]([m5C])[sp].[moe]([m5C])p.[moe]([m5C])p.[moe]([m5C])p.[moe](T)p.[moe](A)[sp].d(G)[sp].d([m5C])[sp].d(G)[sp].d([m5C])[sp].d(G)[sp].d([m5C])[sp].d(G)[sp].d(A)[sp].[moe]([m5C])p.[moe](T)[sp].[moe]([m5C])}$$$$ (last 3' nucleoside missing)", "3 h FOB score": 2}
{"substance": "RNA1{[moe]([m5C])[sp].[moe]([m5C])p.[moe]([m5C])p.[moe]([m5C])p.[moe](T)p.[moe](A)p.d(G)[sp].d([m5C])[sp].d(G)[sp].d([m5C])[sp].d(G)[sp].d([m5C])[sp].d(G)[sp].d(A)[sp].d([m5C])[sp].d(T)[sp].[moe]([m5C])p.[moe]([m5C])[sp].[moe](T)}$$$$ (last 3' nucleoside missing)", "3 h FOB score": 6}
{"substance": "RNA1{[moe]([m5C])[sp].[moe]([m5C])p.[moe]([m5C])p.[moe]([m5C])p.d(T)[sp].d(A)[sp].d(G)[sp].d([m5C])[sp].d(G)[sp].d([m5C])[sp].d(G)[sp].d([m5C])[sp].d(G)[sp].d(A)[sp].[moe]([m5C])p.[moe](T)p.[moe]([m5C])p.[moe]([m5C])[sp].[moe](T)}$$$$ (last 3' nucleoside missing)", "3 h FOB score": 3.75}
